Measurements taken from patent US20140051631A1, “PHARMACEUTICAL COMPOSITION COMPRISING TPO OR AN AGONIST OF THE TPO RECEPTOR” (priority 2012, published 2014).
Each block holds one molecule with its values, some of them ahead of it.

Key:
DNA-PK = target: T1, DNA-PK (Mus musculus, UniProt P97313); experiment: γH2AX foci resolution in LSK-CD34− cultures with DNA-PK inhibitor; assay type: cell-based, mice; conditions: 10 μm NU7441 in TPO-containing cultures of LSK-CD34− cells, IR 2 Gy, 24 h
T1 construct: LSK and LSK-CD34^− cells were sorted using ARIAS cell sorter; endogenous in cells; host or cells: primary mouse bone-marrow LSK-CD34- cells
Text: (§1) Mpl^−/− backcrossed on C57BL/6 (CD45.2) background (kindly provided by Dr F. de Sauvage) were described previously (Petit-Cocault et al., 2007). C57BL/6J (CD45.2 and CD45.1) and CB17-Prkdc-scid mice were purchased from Charles River and Harlan laboratories, respectively. Unless otherwise specified, mice of 8-10 weeks of age were used. Lin^− progenitors were isolated from BM and stained as described (Saulnier et al., 2012). LSK and LSK-CD34^− cells were sorted using ARIAS cell sorter (BD Franklin Lakes, N.J., USA) and cultured in StemSpan SFEM (StemCell Technologies) supplemented with recombinant Flt3-Ligand (100 ng/ml), interleukin-3 (IL-3, 10 ng/ml), interleukin-6 (IL-6, 10 ng/ml), Stem cell factor (SCF, 100 ng/ml), and with or without 50 ng/ml TPO (complete medium), all from Peprotech (Rocky Hill, N.J., USA). […] For competitive reconstitution experiments, 3000 LSKs sorted from C57BL/6 CD45.1 mice subjected or not to TBI (2 Gy) and TPO injection (8 μg/kg body weight), were injected in lethally irradiated (10 Gy) C57BL/6 CD45.2 congenic mice, together with 3×10^5 BM CD45.2 competitor cells and analyzed 4 months later.
(§2) Immunofluorescence was performed as described (Pawlikowska et al., 2010) with cells cytospun on glass slides. […] Pictures were analyzed using ImageJ software.

LSKs [1] = experiment: γH2AX foci / DNA break disappearance after IR in vitro in cytokine cultures; assay type: cell-based, mice; conditions: removal of the cytokine from culture medium
Text: as §1, §2

LSK and LSK-CD34^− cells [2] = experiment: LSK and LSK-CD34− proportions, cell cycle status and cell cycle regulators 5 h after TBI; assay type: in vivo, mice
Text: (§3) Mpl^−/− backcrossed on C57BL/6 (CD45.2) background (kindly provided by Dr F. de Sauvage) were described previously (Petit-Cocault et al., 2007). C57BL/6J (CD45.2 and CD45.1) and CB17-Prkdc-scid mice were purchased from Charles River and Harlan laboratories, respectively. Unless otherwise specified, mice of 8-10 weeks of age were used. Lin^− progenitors were isolated from BM and stained as described (Saulnier et al., 2012). LSK and LSK-CD34^− cells were sorted using ARIAS cell sorter (BD Franklin Lakes, N.J., USA) and cultured in StemSpan SFEM (StemCell Technologies) supplemented with recombinant Flt3-Ligand (100 ng/ml), interleukin-3 (IL-3, 10 ng/ml), interleukin-6 (IL-6, 10 ng/ml), Stem cell factor (SCF, 100 ng/ml), and with or without 50 ng/ml TPO (complete medium), all from Peprotech (Rocky Hill, N.J., USA). UT7-Mpl cells (Hamelin et al., 2006) were cultured in α-minimal essential medium (α-MEM) supplemented with 10% FCS and 2 U/ml erythropoietin (EPO, Boehringer Ingelheim). Cell IR in vitro were carried-out in a Biobeam 8000 irradiator (Gamma Service Medical GmbH, Leipzig, Germany). Mice TBI were performed in cesium irradiator IBL 637 (Curie Institute, Paris). Etoposide and doxorubicine were purchased from sigma (Saint-Louis, Mo., USA), drugs were injected intraperitoneally at the indicated doses. For competitive reconstitution experiments, 3000 LSKs sorted from C57BL/6 CD45.1 mice subjected or not to TBI (2 Gy) and TPO injection (8 μg/kg body weight), were injected in lethally irradiated (10 Gy) C57BL/6 CD45.2 congenic mice, together with 3×10^5 BM CD45.2 competitor cells and analyzed 4 months later.

LSKs [3] = experiment: Competitive reconstitution with LSKs from irradiated donor mice; assay type: in vivo
Text: as §1, with “USA). UT7-Mpl cells (Hamelin et al., 2006) were cultured in α-minimal essential medium (α-MEM) supplemented with 10% FCS and 2 U/ml erythropoietin (EPO, Boehringer Ingelheim).” for “USA).”

LSKs from SCID mice = experiment: γH2AX foci in LSKs from SCID mice after TBI; assay type: in vivo; conditions: SCID mice (DNA-PKcs mutation), TPO 8 μg/kg, TBI 2 Gy, 16 h
Text: as §1, §2

LSK and LSK-CD34^− cells [4] = experiment: Persistent DNA damage (γH2AX) in LSK and LSK-CD34− cells 3 months after TBI; assay type: in vivo, mice; conditions: TPO prior to TBI, analyzed 3 months later
Text: as §1, §2

Lin^− progenitors = experiment: Chromosomal aberrations in metaphases from Lin− progenitors after TBI in vivo; design: species or system mice
Description: Fluorescence was analyzed with a Zeiss Axioplan epifluorescent microscope and ISIS/M-FISH imaging system (MetaSystems).

LSKs [5] = experiment: γH2AX foci in LSKs of mice after TBI or chemotherapeutic drug injection; assay type: in vivo; conditions: WT mice, vs PBS
Text: as §3
(§4) Immunofluorescence was performed as described (Pawlikowska et al., 2010) with cells cytospun on glass slides. Slides were visualized with Leica DMI 6000 (Wetzlar, Germany) microscope equipped with a 63×1.6 oil-immersion objective and a coupled device camera MicroMAX (Princeton Instruments Trenton, N.J., USA). Pictures were analyzed using ImageJ software.

UT7-Mpl cells = experiment: DNA damage and p-DNA-PK foci in UT7-Mpl cells after IR; assay type: cell-based, human
Text: as §3, §4

Rad51 foci = experiment: Homologous recombination markers: Rad51 foci and repair of replicative-stress DSBs; assay type: cell-based
WT HSPCs = experiment: Chromosomal rearrangements in HSPCs irradiated in vitro; assay type: cell-based, mice; conditions: WT HSPCs irradiated in vitro (2 Gy), cultured in the absence of TPO
Text: as §1
Chromosomal aberration analysis in metaphase spreads were performed as described previously (Pawlikowska et al., 2010). […] Fluorescence was analyzed with a Zeiss Axioplan epifluorescent microscope and ISIS/M-FISH imaging system (MetaSystems).

[6] = in the absence of TPO, compared to TPO-treated cells, IR 2 Gy

TPO-improved γH2AX foci resolution (DNA-PK): completely abolished
Molecule: O=c1cc(N2CCOCC2)oc2c(-c3cccc4c3sc3ccccc34)cccc12 [NU7441]

Molecule: Stem cell factor [SCF, reference compound]
kinetics of IR-induced γH2AX foci or DNA break disappearance (LSKs [1]): did not impair

Molecule: Thrombopoietin [TPO]
proportions of LSK and LSK-CD34− cells recovered from BM (LSK and LSK-CD34^− cells [2]; 5 h after TBI, PBS vs TPO-treated mice): not significantly different | cell cycle status of LSK or LSK-CD34− cells (LSK and LSK-CD34^− cells [2]; TPO treatment pre-TBI, compared to PBS): did not alter | expression of cell cycle regulators p57kip2 and p27Kip1 (LSK and LSK-CD34^− cells [2]; after TPO injection and TBI): remained unchanged | increase in donor CD45.1 chimerism in the peripheral blood and in BM LSK cells (LSKs [3]; 4 months after transplantation, TPO vs PBS before TBI): 3- to 5 fold | donor chimerism, difference between the TPO and PBS groups (LSKs [3]; 6 weeks posttransplantation): No difference | TBI-induced LSK γH2AX foci formation (LSKs from SCID mice): did not decrease | number and cycle of HSCs and HSPCs (LSK and LSK-CD34^− cells [4]): no effect | persistent DNA damage (γH2AX foci) in HSCs and HSPCs (LSK and LSK-CD34^− cells [4]): almost completely abolished | chromosomal aberrations in metaphases from progenitor cells (Lin^− progenitors; 3 months from TBI, TPO-injected mice): greatly reduced | genomic instability (genomic rearrangements) transmitted to progenitor progeny of LSKs (Lin^− progenitors; 4 months after reconstitution of lethally irradiated recipients, TPO injection before TBI): significantly reduced | number of LSKs displaying γH2AX foci (LSKs [5]; TPO 8 μg/kg injected just before 2 Gy TBI, at 5 h): reduced significantly | number of LSKs displaying γH2AX foci (LSKs [5]; TPO injected just before doxorubicine (3 or 10 mg/kg), at 24 h): reduced significantly | number of LSKs displaying γH2AX foci (LSKs [5]; TPO injected just before etoposide (4 mg/kg), at 24 h): reduced significantly | TPO action on IR-induced DNA damage in human cell line (UT7-Mpl cells; UT7-Mpl grown with EPO or TPO): could also act | number of UT7-Mpl cells showing IR-induced pSer2056- and pT2609-DNA-PK foci (UT7-Mpl cells; [6]): significantly decreased | p-DNA-PK foci number in positively stained cells (UT7-Mpl cells; [6]): greatly reduced | total DNA-PK signal (UT7-Mpl cells; upon IR or TPO treatment): did not change | repair of DSBs induced by replicative stresses (Rad51 foci; camptotecin and hydroxyurea): could not improve | IR-induced Rad51 foci formation (Rad51 foci; functional marker of HR): did not increase | chromosomal rearrangements (WT HSPCs): high numbers

B1: Flt3-ligand: recombinant cytokine of the culture medium (100 ng/ml) (protein, UniProt P49771 27-235, looked up)
Fms-related tyrosine kinase 3 …: TQDCSFQHSPISSDFAVKIRELSDYLLQDYPVTVASNLQDEELCGGLWRLVLAQRWMERLKTVAGSKMQGLLERVNTEIHFVTKCAFQPPPSCLRFVQTNISRLLQETSEQLVALKPWITRQNFSRCLELQCQPDSSTLPPPWSPRPLEATAPTAPQPPLLLLLLLPVGLLLLAAAWCLHWQRTRRRTPRPGEQVPPVPSPQDLLLVEH
kinetics of IR-induced γH2AX foci or DNA break disappearance (LSKs [1]): did not impair
